The source made the active and inactive calls. No rule for the calls is given here.
Test system: CCRIS mutagenicity, Ames/micronucleus/aberration tests
Assay: CCRIS mutagenicity studies
[1] = Test System: AMES SALMONELLA TYPHIMURIUM, Strain/Indicator: TA98, Metabolic Activation: NONE, Method: PREINCUBATION
[2] = Test System: AMES SALMONELLA TYPHIMURIUM, Strain/Indicator: TA100, Metabolic Activation: NONE, Method: PREINCUBATION
[3] = Test System: AMES SALMONELLA TYPHIMURIUM, Strain/Indicator: TA98, Metabolic Activation: NONE, Method: STANDARD PLATE
[4] = Test System: AMES SALMONELLA TYPHIMURIUM, Strain/Indicator: TA100, Metabolic Activation: NONE, Method: STANDARD PLATE
[5] = Test System: AMES SALMONELLA TYPHIMURIUM, Strain/Indicator: TA98, Metabolic Activation: RAT, LIVER, S-9, AROCLOR 1254, Method: STANDARD PLATE
[6] = Test System: AMES SALMONELLA TYPHIMURIUM, Strain/Indicator: TA100, Metabolic Activation: RAT, LIVER, S-9, AROCLOR 1254, Method: STANDARD PLATE
[7] = Test System: AMES SALMONELLA TYPHIMURIUM, Strain/Indicator: TA1535, Metabolic Activation: NONE, Method: STANDARD PLATE
[8] = Test System: AMES SALMONELLA TYPHIMURIUM, Strain/Indicator: TA1535, Metabolic Activation: RAT, LIVER, S-9, AROCLOR 1254, Method: STANDARD PLATE
[9] = Test System: AMES SALMONELLA TYPHIMURIUM, Strain/Indicator: TA1537, Metabolic Activation: NONE, Method: STANDARD PLATE
[10] = Test System: AMES SALMONELLA TYPHIMURIUM, Strain/Indicator: TA1537, Metabolic Activation: RAT, LIVER, S-9, AROCLOR 1254, Method: STANDARD PLATE
[11] = Test System: AMES SALMONELLA TYPHIMURIUM, Strain/Indicator: TA1538, Metabolic Activation: NONE, Method: STANDARD PLATE
[12] = Test System: AMES SALMONELLA TYPHIMURIUM, Strain/Indicator: TA1538, Metabolic Activation: RAT, LIVER, S-9, AROCLOR 1254, Method: STANDARD PLATE

Measured: mutagenic call

FC(F)(Cl)C(F)(F)Cl
inactive: Test System: AMES SALMONELLA TYPHIMURIUM, Strain/Indicator: TA98, Metabolic Activation: NONE, Method: GAS EXPOSURE inactive; negative | Test System: AMES SALMONELLA TYPHIMURIUM, Strain/Indicator: TA98, Metabolic Activation: RAT LIVER S-9, PHENOBARBITAL AND BETA-NAPHTHOFLAVONE (40%), Method: GAS EXPOSURE inactive; negative | Test System: AMES SALMONELLA TYPHIMURIUM, Strain/Indicator: TA100, Metabolic Activation: NONE, Method: GAS EXPOSURE inactive; negative | Test System: AMES SALMONELLA TYPHIMURIUM, Strain/Indicator: TA100, Metabolic Activation: RAT LIVER S-9, PHENOBARBITAL AND BETA-NAPHTHOFLAVONE (40%), Method: GAS EXPOSURE inactive; negative | Test System: AMES SALMONELLA TYPHIMURIUM, Strain/Indicator: TA1535, Metabolic Activation: NONE, Method: GAS EXPOSURE inactive; negative | Test System: AMES SALMONELLA TYPHIMURIUM, Strain/Indicator: TA1535, Metabolic Activation: RAT LIVER S-9, PHENOBARBITAL AND BETA-NAPHTHOFLAVONE (40%), Method: GAS EXPOSURE inactive; negative | Test System: AMES SALMONELLA TYPHIMURIUM, Strain/Indicator: TA1537, Metabolic Activation: NONE, Method: GAS EXPOSURE inactive; negative | Test System: AMES SALMONELLA TYPHIMURIUM, Strain/Indicator: TA1537, Metabolic Activation: RAT LIVER S-9, PHENOBARBITAL AND BETA-NAPHTHOFLAVONE (40%), Method: GAS EXPOSURE inactive; negative | Test System: E.COLI, Strain/Indicator: WP2UVRA, Metabolic Activation: NONE, Method: GAS EXPOSURE inactive; negative | Test System: E.COLI, Strain/Indicator: WP2UVRA, Metabolic Activation: RAT LIVER S-9, PHENOBARBITAL AND BETA-NAPHTHOFLAVONE (40%), Method: GAS EXPOSURE inactive; negative

COc1ccc2c(c1O)C(=O)c1ccccc1C2=O
inactive: [1] inactive; negative | Test System: AMES SALMONELLA TYPHIMURIUM, Strain/Indicator: TA98, Metabolic Activation: RAT, LIVER, S-9, PCB, Method: PREINCUBATION inactive; negative | [2] inactive; negative | Test System: AMES SALMONELLA TYPHIMURIUM, Strain/Indicator: TA100, Metabolic Activation: RAT, LIVER, S-9, PCB, Method: PREINCUBATION inactive; negative

O=S1(=O)CCCC1
inactive: [1] inactive; negative | Test System: AMES SALMONELLA TYPHIMURIUM, Strain/Indicator: TA98, Metabolic Activation: RAT, LIVER, S-9, KC 500, Method: PREINCUBATION inactive; negative | [2] inactive; negative | Test System: AMES SALMONELLA TYPHIMURIUM, Strain/Indicator: TA100, Metabolic Activation: RAT, LIVER, S-9, KC 500, Method: PREINCUBATION inactive; negative | Test System: AMES SALMONELLA TYPHIMURIUM, Strain/Indicator: TA1535, Metabolic Activation: NONE, Method: PREINCUBATION inactive; negative | Test System: AMES SALMONELLA TYPHIMURIUM, Strain/Indicator: TA1535, Metabolic Activation: RAT, LIVER, S-9, KC 500, Method: PREINCUBATION inactive; negative | Test System: AMES SALMONELLA TYPHIMURIUM, Strain/Indicator: TA1537, Metabolic Activation: NONE, Method: PREINCUBATION inactive; negative | Test System: AMES SALMONELLA TYPHIMURIUM, Strain/Indicator: TA1537, Metabolic Activation: RAT, LIVER, S-9, KC 500, Method: PREINCUBATION inactive; negative | Test System: AMES SALMONELLA TYPHIMURIUM, Strain/Indicator: TA1538, Metabolic Activation: NONE, Method: PREINCUBATION inactive; negative | Test System: AMES SALMONELLA TYPHIMURIUM, Strain/Indicator: TA1538, Metabolic Activation: RAT, LIVER, S-9, KC 500, Method: PREINCUBATION inactive; negative | Test System: E. COLI, Strain/Indicator: WP2 UVRA, Metabolic Activation: NONE, Method: PREINCUBATION inactive; negative | Test System: E. COLI, Strain/Indicator: WP2 UVRA, Metabolic Activation: RAT, LIVER, S-9, KC 500, Method: PREINCUBATION inactive; negative

C/C=C/C=C/CCCCCCCO
inactive: [3] inactive; negative | Test System: AMES SALMONELLA TYPHIMURIUM, Strain/Indicator: TA98, Metabolic Activation: RAT, LIVER, S-9, Method: STANDARD PLATE inactive; negative | [4] inactive; negative | Test System: AMES SALMONELLA TYPHIMURIUM, Strain/Indicator: TA100, Metabolic Activation: RAT, LIVER, S-9, Method: STANDARD PLATE inactive; negative | Test System: AMES SALMONELLA TYPHIMURIUM, Strain/Indicator: TA102, Metabolic Activation: NONE, Method: STANDARD PLATE inactive; negative | Test System: AMES SALMONELLA TYPHIMURIUM, Strain/Indicator: TA102, Metabolic Activation: RAT, LIVER, S-9, Method: STANDARD PLATE inactive; negative

Cc1ccc2cc3c4c(ccc3c3c2c1CC3)C(O)C(O)C=C4 (stereo not given)
active: Test System: CHINESE HAMSTER V-79, Strain/Indicator: V-79/8-AZAGUANINE, Metabolic Activation: NONE, Method: STANDARD PLATE active; positive

O=[N+]([O-])C1=Cc2c3c1cccc3cc1ccc3ccccc3c21
inactive: [4] inactive; negative | [6] inactive; negative | [7] inactive; negative | [8] inactive; negative | [10] inactive; negative
active: [3] active; positive | [5] active; positive | [9] active; positive | [11] active; positive | [12] active; positive

CC(C)NCC(O)c1ccc(NS(C)(=O)=O)cc1 (stereo not given)
inactive: Test System: AMES SALMONELLA TYPHIMURIUM, Strain/Indicator: TA98, Metabolic Activation: NONE inactive; negative | Test System: AMES SALMONELLA TYPHIMURIUM, Strain/Indicator: TA98, Metabolic Activation: RAT, LIVER, S-9, AROCLOR 1254 inactive; negative | Test System: AMES SALMONELLA TYPHIMURIUM, Strain/Indicator: TA100, Metabolic Activation: NONE inactive; negative | Test System: AMES SALMONELLA TYPHIMURIUM, Strain/Indicator: TA100, Metabolic Activation: RAT, LIVER, S-9, AROCLOR 1254 inactive; negative | Test System: AMES SALMONELLA TYPHIMURIUM, Strain/Indicator: TA1535, Metabolic Activation: NONE inactive; negative | Test System: AMES SALMONELLA TYPHIMURIUM, Strain/Indicator: TA1535, Metabolic Activation: RAT, LIVER, S-9, AROCLOR 1254 inactive; negative | Test System: AMES SALMONELLA TYPHIMURIUM, Strain/Indicator: TA1537, Metabolic Activation: NONE inactive; negative | Test System: AMES SALMONELLA TYPHIMURIUM, Strain/Indicator: TA1537, Metabolic Activation: RAT, LIVER, S-9, AROCLOR 1254 inactive; negative | Test System: UDS HUMAN HEPATOCYTES, Strain/Indicator: THY INCORP, Metabolic Activation: NONE, Method: AUTORADIOGRAPHY inactive; negative | Test System: UDS RAT HEPATOCYTES, Strain/Indicator: THY INCORP, Metabolic Activation: NONE, Method: AUTORADIOGRAPHY inactive; negative

CC(C)(CO)[C@@H](O)C(=O)NCCCO
inactive: [3] inactive; negative | [5] inactive; negative | [4] inactive; negative | [6] inactive; negative | [7] inactive; negative | [8] inactive; negative | [9] inactive; negative | [10] inactive; negative | [11] inactive; negative | [12] inactive; negative | Test System: E. COLI, Strain/Indicator: WP2, Metabolic Activation: NONE, Method: STANDARD PLATE inactive; negative | Test System: E. COLI, Strain/Indicator: WP2, Metabolic Activation: RAT, LIVER, S-9, AROCLOR 1254, Method: STANDARD PLATE inactive; negative

— PubChem BioAssay AID1259407 (Chemical Carcinogenesis Research Information System (CCRIS), 2018)
